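96-well plates; 48 h exposure; 5 concentrations. Endpoints by linear interpolation between flanking doses. Not reached: highest tested concentration assigned. GI50 is the concentration that inhibits growth by half.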 The source made the active and inactive calls. Cut-off read from the data, not from the text of the source: active = GI50 up to about 1.1 µM and inactive = higher.
Tests used:
Assay in all cases: inhibition of tumour cell growth, NCI panel, 48 h
[1] = system: A549
[2] = system: COLO 205
[3] = system: HCT-15
[4] = system: HL-60
[5] = system: HT-29
[6] = system: Hs-578T
[7] = system: LOX IMVI
[8] = system: MDA-MB-435
[9] = system: NCI-H23
[10] = system: NCI-H460
[11] = system: PC-3
[12] = system: SF-539
[13] = system: SK-MEL-28
[14] = system: SK-OV-3
[15] = system: SN12C
[16] = system: SR
[17] = system: SW-620
[18] = system: T47D
[19] = system: UO-31

SMILES	GI50 [1]	GI50 [2]	GI50 [3] [µM]	GI50 [4]	GI50 [5]	GI50 [6]	GI50 [7]	GI50 [8]	GI50 [9]	GI50 [10]	GI50 [11]	GI50 [12]	GI50 [13]	GI50 [14]	GI50 [15]	GI50 [16]	GI50 [17]	GI50 [18]	GI50 [19]
O=C1Oc2ccccc2C(=O)/C1=C/N1C(=O)N/C(=C\c2ccccc2O)C1=O	58.9 µM (inactive)	62.5 µM (inactive)	39.8	60.3 µM (inactive)	54.7 µM (inactive)	> 53.1 µM (inactive)	34.1 µM (inactive)	> 79.3 µM (inactive)	59.8 µM (inactive)	35.2 µM (inactive)	43.6 µM (inactive)	59.8 µM (inactive)	> 84.9 µM (inactive)	> 62.7 µM (inactive)	53.6 µM (inactive)	32.3 µM (inactive)	> 90.8 µM (inactive)	34.2 µM (inactive)	39 µM (inactive)
CN(Cc1cc(Cl)cc(Cl)c1)CC(C(=O)c1ccccc1)c1ccccc1 (configuration not stated)	23.3 µM (inactive)	3.92 µM (inactive)	0.368	1.65 µM (inactive)	1.12 µM (active)	3.15 µM (inactive)	1.65 µM (inactive)	3.61 µM (inactive)	1.7 µM (inactive)	27.5 µM (inactive)	4.91 µM (inactive)	5.77 µM (inactive)	2.9 µM (inactive)	10.6 µM (inactive)	4.67 µM (inactive)	0.473 µM (active)	0.326 µM (active)	2.02 µM (inactive)	6.46 µM (inactive)
COc1nc(N)c(NC2OC(CO)C(O)C2O)c(=O)[nH]1 (configuration not stated)	> 100 µM (inactive)	> 100 µM (inactive)	> 100	> 100 µM (inactive)	> 100 µM (inactive)	> 100 µM (inactive)	> 100 µM (inactive)	> 100 µM (inactive)	> 100 µM (inactive)	> 100 µM (inactive)	> 100 µM (inactive)	> 100 µM (inactive)	> 100 µM (inactive)	> 100 µM (inactive)	> 100 µM (inactive)	> 100 µM (inactive)	> 100 µM (inactive)	> 100 µM (inactive)	> 100 µM (inactive)
